From patent US20140140991A1, “METHODS OF TREATING A DISEASE OR DISORDER ASSOCIATED WITH BRUTON'S TYROSINE KINASE” (Celgene Avilomics Research, Inc., priority 2012, published 2014)

Assays:
[1] = physchem; conditions: pH 3, aqueous buffer
[2] = Environmental stability (heat, acid, base); format: physicochemical
[3] = Safety and pharmacokinetics, single dose studies in healthy subjects; format: in vivo, human
[4] = target: Syk (Homo sapiens, UniProt P43405); conditions: DLBCL, CLL, and mantle cell lymphoma; cited from earlier work

With C=CC(=O)Nc1cccc(Nc2nc(Nc3ccc(OCCOC)cc3)ncc2F)c1.O=S(=O)(O)c1ccccc1 [N-(3-(5-fluoro-2-(4-(2-methoxyethoxy)phenylamino)pyrimidin-4-ylamino)phenyl)acrylamide benzenesulfonic acid salt] the solubility [1] was 400 µg/mL and the “environmental instabilities (i.e. heat, acid, base) that require special handling” value [2] was “no environmental instabilities”.
In the case of C=CC(=O)Nc1cccc(Nc2nc(Nc3ccc(OCCOC)cc3)ncc2F)c1 [Compound 1, N-(3-(5-fluoro-2-(4-(2-methoxyethoxy)phenylamino)pyrimidin-4-ylamino)phenyl)acrylamide], the “pharmacokinetics (PK)” value [3] is reported as “predictable pharmacokinetics” and the safety [3] is reported as “adequate safety”.
For COc1cc(Nc2ncc(F)c(Nc3ccc4c(n3)N(COP(=O)(O)O)C(=O)C(C)(C)O4)n2)cc(OC)c1OC [fostamatinib disodium], the clinical responses [4] is listed as “produced clinical responses”.
